The values below come from US12371676B2, “Circularly permutated haloalkane transferase fusion molecules” (MAX-PLANCK-GESELLSCHAFT ZUR FÖRDERUNG DER WISSENSCHAFTEN E. …, priority 2019, dated 2025).

No end group written: not given here.

For data set [1], the target named is T1, HaloTag7D106A (Rhodococcus rhodochrous, UniProt P0A3G2, A155T/A167V/A172T/A224E/C128F/C176G/D106A/D78G/E160K/E257K/H272N/K175M/K195N/L47V/L88M/N227D/P291S/S2A/S58T/T264A/Y273L/Y87F).
T1 construct: made in house
The data set can be described thus: FP binding assay of fluorescent HaloTag ligands. The protocol:
FIG. 2 Affinities of fluorescent Halo Tag™ ligands to HaloTag7D106A: The catalytically dead variant HaloTag7D106A was titrated against 5 different fluorescent HaloTag™ ligands at 25 nM in an FP binding assay (Halo-carbopyronine, Halo-TMR, Halo-TMR-azetidine, Halo-Oregon Green™, Halo Alexa Fluor™ 488). Structures of the fluorescent ligands are shown in each graph. Data points at 0.1 nM and 1 nM correspond to values without any protein added, but were placed at low concentrations to appear on the logarithmic scale. All experiments were performed in triplicates, error bars and annotated uncertainties represent standard deviations.
(§1) The inventors decided to perform the experiment with some representative fluorescent HaloTag™ substrates. An exchange of the aspartate106 residue in the active site by an alanine, removes the nucleophile responsible for the self labeling reaction and eliminates the catalytic activity of the protein. Catalytically dead mutants of HaloTag™ 7 (HaloTag™ 7D106A) and cpHaloΔ9mer (cpHalo_9merD106A) were generated to measure substrate affinities without displacement of the equilibrium by the enzymatic reaction.
Affinities for the different fluorescent substrates towards HaloTag™ 7D106A were determined in an FP binding assay (FIG. 2), while affinities of fluorogenic silcon-rhodamine derived substrates were measured by a fluorescence intensity based binding assay (FIG. 3), since binding of the fluorogenic ligands by HaloTag™ 7 engenders a strong increase of fluorescence. In both cases Halo Tag7D106A concentrations ranging from 0 μM to 100 μM were titrated against 25 nM of dye. […] The observed affinities are in agreement with labelling kinetics recorded with different substrates (data not shown). In general, fluorogenic substrates have lower affinities to HaloTag7D106A than non-fluorogenic substrates, except for Halo-Alexa Fluor™ 488 that features an affinity in the same range. Additionally, within the Silicon rhodamine derivatives the presence of an azetidine or 3-fluoroazetidine moiety has an influence on the binding affinity which is more pronounced compared to the rhodamine structure. Affinities of fluorescent HaloTag™ ligands presenting the best affinities for HaloTag™ 7 were tested with cpHaloΔ9merD106A in an FP binding assay and results were compared to the measurements with HaloTag7D106A (FIG. 4, table 1).

The target in data set [2] is cpHaloΔ9merD106A (Rhodococcus rhodochrous, UniProt P0A3G2, A167V/A172T/A224E/A292T/C128F/C176G/D106A/D78G/E160K/E257K, form not given/H272N/K175M/K195N/L47V/L88M/N227D/P291S/S58T/T264A/Y273L/Y87F). The data set can be described thus: FP binding assay of fluorescent HaloTag ligands. To be noted: 25 nM dye. As for the experimental part:
FIG. 4 Comparison of HaloTag™ 7D106A and cpHaloΔ9merD106A fluorescent substrate binding: The catalytically dead variant […] (blue) was titrated against 3 different fluorescent Halo Tag™ ligands at 25 nM in an FP binding assay (Halo-TMR, Halo-TMR-azetidine and Halo-carbopyronine). Structures of the respective fluorescent ligands are shown above each graph. Data were fitted to a one-site binding model and derived Kd values are shown in the graphs. Data points at 0.01 nM and 0.1 nM correspond to values without any protein added, but were placed at low concentrations to appear on the logarithmic scale. Data were compared to HaloTag™ 7D106A binding of the same fluorophores (red). Differences in binding affinity are indicated by the relative fold change of Kd values. All experiments were performed in triplicate, error bars represent standard deviations.
as §1
(§2) Affinities for the different fluorescent substrates towards HaloTag™ 7D106A were determined in an FP binding assay (FIG. 2), while affinities of fluorogenic silcon-rhodamine derived substrates were measured by a fluorescence intensity based binding assay (FIG. 3), since binding of the fluorogenic ligands by HaloTag™ 7 engenders a strong increase of fluorescence. In both cases Halo Tag7D106A concentrations ranging from 0 μM to 100 μM were titrated against 25 nM of dye. […] The observed affinities are in agreement with labelling kinetics recorded with different substrates (data not shown). […]

Data set [3] addresses T2, cpHaloΔ9mer (Rhodococcus rhodochrous, UniProt P0A3G2, C128F/D78G/L47V/L88M/S58T/Y87F).
T2 construct: made in house
The data set can be described thus: Background labelling of cpHaloΔ9mer by in gel fluorescence. Type of data set: biochemical. To be noted: cpHaloΔ9mer 1 μM, 2 μM fluorescent ligand, 37° C. The protocol:
FIG. 5 Background labeling of cpHaloΔ9mer: Background labeling of cpHaloΔ9mer (1 μM) in presence of 2 μM fluorescent ligands (at 37° C.) was determined via in gel fluorescence measurements. Samples were denatured and analysed via SDS-PAGE followed by in gel fluorescence scanning (top; gel is represented in false colors to highlight dim bands). Intensities were normalized to Halo Tag™ 7 labeled with the respective fluorophore (bottom).
A well performing protein complementation assay requires a low background. The inventors thus measured the extent of background labelling of cpHaloΔ9mer with different fluorophores (Halo-TMR, Halo-CPY and Halo-SiR). Therefore, cpHaloΔ9mer was incubated with an excess of the different fluorescent ligands.
The labelling efficiency at 37° C. and at different time points was determined via in gel fluorescence measurements (FIG. 5). […] These findings are in accordance to fluorescent ligand affinities (FIG. 4). Indeed, Halo-CPY has the highest affinity to cpHaloΔ9mer and already presents some affinity for the ligand at 2 μM engendering a labelling which still remains marginal considering the experimental setup.

Data set [4] addresses T1, HaloTag7D106A. The data set can be described thus: Fluorescence intensity based binding assay of fluorogenic HaloTag ligands. To be noted: 25 nM fluorogenic dye. The protocol: FIG. 3 Affinities of fluorogenic HaloTag™ ligands to HaloTag7D106A: The catalytically dead variant HaloTag7D106A was titrated against 3 different fluorogenic HaloTag™ ligands at 25 nM in a fluorescence intensity based binding assay (Halo-Siliconrhodamine, Halo-Janelia Fluor 646 and Halo-Janelia Fluor 635). Structures of the fluorogenic ligands are shown in each graph. Data were fitted to a one-site binding model and derived Kd values are shown in the graph. Due to the low affinity of the fluorogenic substrates, data points at […] were extrapolated based on fully labelled Halo Tag™ 7 (resembling complete binding) to improve fitting. Data points at 1 nM correspond to values without any protein added, but were placed at low concentrations to appear on the logarithmic scale. All experiments were performed in triplicates, error bars and annotated uncertainties represent standard deviations.
as §1, §2

Data set [5] is described as follows: physchem. To be noted: pH 7.3.

cpHaloΔ9merD106A, sequence (P0A3G2 other isoform, or with tags, fused parts or gaps with the stated changes, form open): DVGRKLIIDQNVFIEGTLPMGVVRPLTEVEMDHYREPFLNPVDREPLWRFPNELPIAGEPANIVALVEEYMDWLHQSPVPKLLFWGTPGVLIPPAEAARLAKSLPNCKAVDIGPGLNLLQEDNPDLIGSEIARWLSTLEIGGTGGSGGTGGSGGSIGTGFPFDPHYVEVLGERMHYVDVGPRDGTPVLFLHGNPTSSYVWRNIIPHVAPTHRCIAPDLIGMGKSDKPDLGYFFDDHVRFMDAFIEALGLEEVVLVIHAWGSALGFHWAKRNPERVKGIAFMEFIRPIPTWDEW
T2 sequence (P0A3G2 other isoform, or with tags, fused parts or gaps L47V/S58T/D78G/Y87F/L88M/C128F): as the sequence (P0A3G2 other isoform, or with tags, fused parts or gaps with the stated changes, form open) above, with A258D counted along it
T1 sequence (P0A3G2 other isoform, or with tags, fused parts or gaps with the stated changes): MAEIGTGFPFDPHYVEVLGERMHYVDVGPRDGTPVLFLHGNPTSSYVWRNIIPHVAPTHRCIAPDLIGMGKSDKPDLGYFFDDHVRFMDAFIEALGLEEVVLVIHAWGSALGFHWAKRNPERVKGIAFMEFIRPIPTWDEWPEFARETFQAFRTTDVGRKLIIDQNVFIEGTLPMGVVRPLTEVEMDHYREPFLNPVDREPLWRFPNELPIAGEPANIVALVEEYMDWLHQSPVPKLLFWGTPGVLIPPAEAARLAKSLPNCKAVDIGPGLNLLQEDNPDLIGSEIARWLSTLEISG

In turn, `O=C(NCCOCCOCCCCCCCl)c1ccc(C(=O)O)c(-c2c3cc(F)c(=O)cc-3oc3cc(O)c(F)cc23)c1` [Halo-Oregon Green, 4-((2-(2-((6-chlorohexyl)oxy)ethoxy)ethyl)carbamoyl)-2-(2,7-difluoro-6-hydroxy-3-oxo-3H-xanthen-9-yl)benzoic acid] showed a Kd in data set [1] of 39.6 µM.
As for `CN(C)c1ccc2c(-c3cc(C(=O)NCCOCCOCCCCCCCl)ccc3C(=O)[O-])c3ccc(=[N+](C)C)cc-3oc2c1` [Halo-tetramethylrhodamine, N-(9-(2-carboxy-5-((2-(2-((6-chlorohexyl)oxy)ethoxy)ethyl)carbamoyl)phenyl)-6-(dimethylamino)-3H-xanthen-3-ylidene)-N-methylmethanaminium], the Kd in data set [2] is 115 µM; in data set [1], 6.68 µM. The “background labelling of cpHaloΔ9mer” value in data set [3] is “Very low background labelling”.
As for `C[Si]1(C)C2=CC(=[N+]3CCC3)C=CC2=C(c2cc(C(=O)NCCOCCOCCCCCCCl)ccc2C(=O)O)c2ccc(N3CCC3)cc21` [Halo-silicon-rhodamine-azetidine (JF646), 1-(7-(azetidin-1-yl)-10-(2-carboxy-5-((2-(2-((6-chlorohexyl)oxy)ethoxy)ethyl)-carbamoyl)phenyl)-5,5-dimethyldibenzo[b,e]silin-3(5H)-ylidene)azetidin-1-ium], the Kd in data set [4] stood at 54.6 µM.
`N=c1ccc2c(-c3cc(C(=O)NCCOCCOCCCCCCCl)ccc3C(=O)O)c3ccc(N)c(S(=O)(=O)O)c3oc-2c1S(=O)(=O)O` [Halo-Alexa Fluor 488, 6-amino-9-(2-carboxy-5-((2-(2-((6-chlorohexyl)oxy)ethoxy)ethyl)carbamoyl)phenyl)-3-iminio-3H-xanthene-4,5-disulfonate]: the Kd in data set [1] (HaloTag7D106A, FP binding assay, 25 nM dye, one-site binding model, read-out: Kd) came out at 94 µM.
As to `CN(C)c1ccc2c(c1)C(C)(C)C1=CC(=[N+](C)C)C=CC1=C2c1cc(C(=O)NCCOCCOCCCCCCCl)ccc1C(=O)[O-]` [Halo-carbopyronine, N-(10-(2-carboxy-5-((2-(2-((6-chlorohexyl)oxy)ethoxy)ethyl)carbamoyl)phenyl)-7-(dimethylamino)-9,9-dimethylanthracen-2(9H)-ylidene)-N-methylmethanaminium], the dissociation constant Kd amounted to 90.5 µM in data set [2] and 0.622 µM in data set [1]. The “background labelling of cpHaloΔ9mer” value in data set [3] was “slightly stronger background labelling”.
The compound `C[Si]1(C)C2=CC(=[N+]3CC(F)C3)C=CC2=C(c2cc(C(=O)NCCOCCOCCCCCCCl)ccc2C(=O)O)c2ccc(N3CC(F)C3)cc21` (stereo not drawn) [1-(10-(2-carboxy-5-((2-(2-((6-chlorohexyl)oxy)ethoxy)ethyl)carbamoyl)phenyl)-7-(3-fluoroazetidin-1-yl)-5,5-dimethyldibenzo[b,e]silin-3(5H)-ylidene)-3-fluoroazetidin-1-ium] gave a Kd in data set [4] of 172 µM.
Take `O=C(NCCOCCOCCCCCCCl)c1ccc(C(=O)[O-])c(-c2c3ccc(=[N+]4CCC4)cc-3oc3cc(N4CCC4)ccc23)c1` [Halo-tetramethylrhodamine-azetidine, 1-(6-(azetidin-1-yl)-9-(2-carboxy-5-((2-(2-((6-chlorohexyl)oxy)ethoxy)ethyl)carbamoyl)-phenyl)-3H-xanthen-3-ylidene)azetidin-1-ium]: the values for the Kd in data set [2] and in data set [1] were 227 µM and 4.4 µM, respectively.
In the case of `CN(C)c1ccc2c(c1)[Si](C)(C)C1=CC(=[N+](C)C)C=CC1=C2c1cc(C(=O)NCCOCCOCCCCCCCl)ccc1C(=O)O` [Halo-silicon-rhodamine, N-(10-(2-carboxy-5-((2-(2-((6-chlorohexyl)oxy)ethoxy)ethyl)carbamoyl)phenyl)-7-(dimethylamino)-5,5-dimethyldibenzo[b,e]silin-3(5H)-ylidene)-N-methylmethanaminium], in data set [4], binding was put at a Kd of 22.7 µM. Also, in data set [3], the “background labelling of cpHaloΔ9mer” value is on record as “Very low background labelling”.
On to ARETFQAFR [9mer peptide], for which the solubility in data set [5] was ~30 mM.
